These results are taken from patent US11352352B2, “Aminopyrimidine compound, preparation method therefor and use thereof” (BEIJING ADAMADLE BIOTECHNOLOGY LIMITED LIABILITY COMPANY, priority 2017, dated 2022).

What all share (test): Cell proliferation inhibition experiment, CellTiter-Glo (CTG) method
Format in all cases: cell-based

The subject of one experiment is NCI-H1975. The following applies: for IC50: Homo sapiens, NCI-H1975, 72 h, NCI-H1975 cells, CTG, 3 days; for A-431/NCI-H1975 Selectivity: ratio of A-431 IC50 to NCI-H1975 IC50. The essentials: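 NCI-H1975 cells with viability above 90% by trypan blue were seeded at 90 μL per well in black 96-well plates and incubated overnight at 37° C., 5% CO2. Compounds were added at nine concentrations in triplicate, and viability was measured with CellTiter-Glo luminescence on EnVision. IC50 came from non-linear S-curve fitting in GraphPad Prism 5.0.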

The test system of a further experiment is PC-9. The following applies: Homo sapiens, PC-9, 72 h, PC-9 cells, 3 days. The essentials: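 Cells in log-phase growth (viability above 90% by trypan blue) were seeded at 90 μL per well in black-walled, clear-bottom 96-well plates and incubated overnight at 37° C., 5% CO2. A T0 plate was read the next day. Test compounds were added at nine concentrations in triplicate with a solvent control. Viability was measured by CellTiter-Glo luminescence on EnVision, and IC50 came from non-linear S-curve fitting in GraphPad Prism 5.0.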

The next experiment has as its system A-431. The following applies: Homo sapiens, A-431, 72 h, A-431 cells, 3 days. The essentials: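 Log-phase cells (viability >90%) were plated and incubated overnight, then dosed in triplicate across nine 3-fold concentrations. The top dose was 30 μM on A-431 and 1.111 μM on NCI-H1975 and PC-9. Survival after 3 days was measured by CellTiter-Glo and IC50 derived by non-linear regression.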

The structures appear in SMILES notation.

On to `C=CC(=O)Nc1cc(Nc2cc(-c3ccc4cnn(C)c4c3)ncn2)c(OC)cc1N1CCC(N2C[C@@H](C)N(C)[C@@H](C)C2)CC1` [compound 156], for which the IC50 with NCI-H1975 turned out to be 25.1 nM; in the experiment with PC-9, 2.7 nM; in the experiment on A-431, 1240 nM. Further, the “A-431/NCI-H1975 Selectivity” value in the experiment with NCI-H1975 was 49.5.
Turning to `C=CC(=O)Nc1cc(Nc2cc(-c3ccc4cnn(C)c4c3)ncn2)c(OC)cc1N1CCC(N2CCN(C(C)C)CC2)CC1` [compound 157], the half-maximal inhibitory concentration (IC50) was found to be 32.7 nM in the experiment on NCI-H1975, 11 nM with PC-9 and 1650 nM with A-431. In addition, the “A-431/NCI-H1975 Selectivity” value in the experiment on NCI-H1975 turned out to be 50.6.
Consider `C=CC(=O)Nc1cc(Nc2cc(-c3ccc4cnn(C)c4c3)ncn2)c(OC)cc1N1CCN(CCOC)CC1` [compound 159], for which the half-inhibitory concentration (IC50) worked out at 31.9 nM with NCI-H1975, 27.9 nM with PC-9 and 1530 nM with A-431.
With `C=CC(=O)Nc1cc(Nc2cc(-c3ccc4cnn(C)c4c3)ncn2)c(OC(F)F)cc1N1C[C@@H](C)C(N)[C@@H](C)C1` (stereo partly shown) [compound 160], the concentration for half-maximal inhibition (IC50) worked out at 39.2 nM in the experiment on NCI-H1975, 32.7 nM in the experiment on PC-9 and 2080 nM in the experiment on A-431. Besides, in the experiment with NCI-H1975, the “A-431/NCI-H1975 Selectivity” value worked out at 53.0.
In the same order, the values of `C=CC(=O)Nc1cc(Nc2cc(-c3ccc4cnn(C)c4c3)ncn2)c(OC(F)F)cc1N1CCC(N2CCOCC2)CC1` [compound 161] are 17.4 nM, 19.9 nM, 1030 nM and 59.3.
As for `C=CC(=O)Nc1cc(Nc2cc(-c3ccc4cnn(C)c4c3)ncn2)c(OC(F)F)cc1N1CCC(N2C[C@@H](C)O[C@@H](C)C2)CC1` [compound 162], the IC50 was 16.8 nM with NCI-H1975, 18.9 nM with PC-9 and 763 nM in the experiment on A-431. For the same compound, the “A-431/NCI-H1975 Selectivity” value in the experiment on NCI-H1975 is on record as 45.4.
In the same order, the values of `C=CC(=O)Nc1cc(Nc2cc(-c3ccc4cnn(C)c4c3)ncn2)c(OC(F)F)cc1N1CCC(N2C[C@@H](C)N(C)[C@@H](C)C2)CC1` [compound 163] are 18.5 nM, 13.8 nM, 834 nM and 45.1.
In the same order, the values of `C=CC(=O)Nc1cc(Nc2cc(-c3ccc4cnn(C)c4c3)ncn2)c(OC(F)F)cc1N(C)C1CCN(C)C1` (stereo not shown) [compound 165] are 50 nM, 40.7 nM, 2650 nM and 53.0.
In the case of `C=CC(=O)Nc1cc(Nc2cc(-c3ccc4cnn(C)c4c3)ncn2)c(OC)cc1N1CCC(N(CC)CC)CC1` [compound 166], the IC50 was 16 nM in the experiment on NCI-H1975, 8.9 nM in the experiment with PC-9 and 986 nM in the experiment with A-431.
Regarding `C=CC(=O)Nc1cc(Nc2cc(-c3ccc4cnn(C)c4c3)ncn2)c(OC(F)F)cc1N1CCC(N(CC)CC)CC1` [compound 167], the figures for the IC50 with NCI-H1975, in the experiment on PC-9 and in the experiment with A-431 were 16.5 nM, 17.1 nM and 1050 nM, respectively.
`C=CC(=O)Nc1cc(Nc2cc(-c3ccc4cnn(C)c4c3)ncn2)c(OC)cc1OCCN(C)C` [compound 169]: the IC50 with NCI-H1975 worked out at 34.3 nM; with PC-9 it was 11.4 nM; with A-431, 1640 nM. Also, in the experiment with NCI-H1975, the “A-431/NCI-H1975 Selectivity” value is reported as 47.9.
Regarding `C=CC(=O)Nc1cc(Nc2cc(-c3ccc4cnn(C)c4c3)ncn2)c(OC(F)F)cc1OCCN(C)C` [compound 170], the half-inhibitory concentration (IC50) with NCI-H1975 came to 37.4 nM; in the experiment on PC-9 it was 28 nM; in the experiment with A-431, 1650 nM. The “A-431/NCI-H1975 Selectivity” value in the experiment with NCI-H1975 turned out to be 44.1.
In the same order, the values of `C=CC(=O)Nc1cc(Nc2cc(-c3ccc4c(cnn4C)c3)ncn2)c(OC(F)F)cc1OCCN(C)C` [compound 171] are 26.2 nM, 38 nM, 743 nM and 28.4.
In the same order, the values of `C=CC(=O)Nc1cc(Nc2cc(-c3ccc4cnn(C)c4c3)ncn2)c(OC(F)F)cc1N1CCC(N(C)C)CC1` [compound 174] are 23.5 nM, 15.4 nM, 1330 nM and 56.4.
In the same order, the values of `C=CC(=O)Nc1cc(Nc2cc(-c3ccc4c(cnn4C)c3)ncn2)c(OC(F)F)cc1N1CCC(N(C)C)CC1` [compound 175] are 8.1 nM, 26 nM, 793 nM and 98.0.
`C=CC(=O)Nc1cc(Nc2nccc(-c3ccc4cnn(C)c4c3)n2)c(OC(F)F)cc1N(C)CCN(C)C` [compound 177]: the figures for the half-inhibitory concentration (IC50) in the experiment with NCI-H1975, in the experiment on PC-9 and with A-431 were 19 nM, 23.5 nM and 1470 nM, respectively. Further, in the experiment on NCI-H1975, the “A-431/NCI-H1975 Selectivity” value is 77.3.
